Values joined by “and” are separate entries in the source; they are usually repeats but may differ in a detail not shown here. Equal values may be shown once. Inconclusive results are not listed.
System: BDF1 mice, colon carcinoma 38 sc, T/C %
Test: NCI In Vivo Anticancer Drug Screen. Data for tumor model Colon Carcinoma 38 (subcutaneous) in B6D2F1 (BDF1) mice
In short: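 Transplantable tumor in mice; compound-treated vs vehicle-dosed controls. Measured survival or tumor size; value = T ÷ C.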

[1] = endpoint: median tumor weight (est.), dose: 12.5 mg/kg/injection, schedule: Q07DX002 (ip), vehicle: saline with Tween-80, higher = larger tumour
[2] = endpoint: median tumor weight (est.), dose: 25.0 mg/kg/injection, schedule: Q07DX002 (ip), vehicle: saline with Tween-80, higher = larger tumour
[3] = endpoint: median tumor weight (est.), dose: 50.0 mg/kg/injection, schedule: Q07DX002 (ip), vehicle: saline with Tween-80, higher = larger tumour
[4] = endpoint: median tumor weight (est.), dose: 100.0 mg/kg/injection, schedule: Q07DX002 (ip), vehicle: saline with Tween-80, higher = larger tumour
[5] = endpoint: median tumor weight (est.), dose: 100.0 mg/kg/injection, schedule: Q07DX002 (ip), vehicle: saline, higher = larger tumour
[6] = endpoint: median tumor weight (est.), dose: 200.0 mg/kg/injection, schedule: Q07DX002 (ip), vehicle: saline, higher = larger tumour
[7] = endpoint: median tumor weight (est.), dose: 400.0 mg/kg/injection, schedule: Q07DX002 (ip), vehicle: saline, higher = larger tumour
[8] = endpoint: median tumor weight (est.), dose: 50.0 mg/kg/injection, schedule: Q07DX003 (ip), vehicle: Klucel (hydroxypropylcellulose) (HPC), higher = larger tumour
[9] = endpoint: median tumor weight (est.), dose: 100.0 mg/kg/injection, schedule: Q07DX003 (ip), vehicle: Klucel (hydroxypropylcellulose) (HPC), higher = larger tumour
[10] = endpoint: median tumor weight (est.), dose: 200.0 mg/kg/injection, schedule: Q07DX003 (ip), vehicle: Klucel (hydroxypropylcellulose) (HPC), higher = larger tumour
[11] = endpoint: median tumor weight (est.), dose: 200.0 mg/kg/injection, schedule: Q07DX002 (ip), vehicle: saline with Tween-80, higher = larger tumour

CCc1ccc(C2=C(O)C(=O)C(c3ccc(CC)cc3)=C(O)C2=O)cc1
T/C (endpoint: median tumor weight (est.), dose: 3.12 mg/kg/injection, schedule: Q07DX002 (ip), vehicle: saline with Tween-80, higher = larger tumour): 51 % of control
T/C [1]: 124 % of control
T/C [2]: 96 % of control
T/C [3]: 81 % of control

CCOC1=Cc2c(oc3c(C(C)(C)C)cc(OCC)cc23)OC(C(C)(C)C)=C1
T/C (endpoint: median tumor weight (est.), dose: 0.78 mg/kg/injection, schedule: Q07DX002 (ip), vehicle: saline with Tween-80, higher = larger tumour): 94 % of control
T/C (endpoint: median tumor weight (est.), dose: 1.56 mg/kg/injection, schedule: Q07DX002 (ip), vehicle: saline with Tween-80, higher = larger tumour): 102 % of control
T/C (endpoint: median tumor weight (est.), dose: 6.25 mg/kg/injection, schedule: Q07DX002 (ip), vehicle: saline with Tween-80, higher = larger tumour): 83 % of control (2×) and 88 % of control
T/C [1]: 64 % of control and 65 % of control
T/C [2]: 55 % of control and 64 % of control
T/C [3]: 51 % of control and 65 % of control
T/C [4]: 72 % of control and 77 % of control

C=CC(=O)NCNC(=O)C=C
T/C (endpoint: median tumor weight (est.), dose: 12.5 mg/kg/injection, schedule: Q07DX002 (ip), vehicle: saline, higher = larger tumour): 164 % of control
T/C [5]: 100 % of control
T/C [6]: 89 % of control and 97 % of control
T/C [7]: 35 % of control

[N-]=[N+]=CC(=O)CCC(=O)C=[N+]=[N-]
T/C [8]: 39 % of control
T/C [9]: 45 % of control
T/C [10]: 50 % of control
T/C (endpoint: median tumor weight (est.), dose: 400.0 mg/kg/injection, schedule: Q07DX003 (ip), vehicle: Klucel (hydroxypropylcellulose) (HPC), higher = larger tumour): 19 % of control

CC12CC(C(=O)O)C3(O)CC(C)(C1)CC(C)(C2)C3 (configuration not stated) (tested in a mixture with another compound)
T/C (endpoint: median tumor weight (est.), dose: 12.5 mg/kg/injection, schedule: Q07DX003 (ip), vehicle: Klucel (hydroxypropylcellulose) (HPC), higher = larger tumour): 70 % of control
T/C (endpoint: median tumor weight (est.), dose: 25.0 mg/kg/injection, schedule: Q07DX003 (ip), vehicle: Klucel (hydroxypropylcellulose) (HPC), higher = larger tumour): 94 % of control
T/C [8]: 93 % of control
T/C [9]: 121 % of control
T/C [10]: 84 % of control

CN(N=O)C(=O)N[C@@H](C=O)[C@@H](O)[C@H](O)[C@H](O)CO
T/C (endpoint: median survival time, dose: 23.0 mg/kg/injection, schedule: Q01DX010 (sc), vehicle: other, higher = longer survival): 110 % of control
T/C (endpoint: median survival time, dose: 37.0 mg/kg/injection, schedule: Q01DX010 (sc), vehicle: other, higher = longer survival): 100 % of control
T/C (endpoint: median survival time, dose: 60.0 mg/kg/injection, schedule: Q01DX010 (sc), vehicle: other, higher = longer survival): 115 % of control
T/C (endpoint: median tumor weight (est.), dose: 12.5 mg/kg/injection, schedule: Q07DX003 (ip), vehicle: other, higher = larger tumour): 78 % of control
T/C (endpoint: median tumor weight (est.), dose: 25.0 mg/kg/injection, schedule: Q07DX003 (ip), vehicle: other, higher = larger tumour): 54 % of control
T/C (endpoint: median tumor weight (est.), dose: 50.0 mg/kg/injection, schedule: Q07DX003 (ip), vehicle: other, higher = larger tumour): 66 % of control
T/C (endpoint: median tumor weight (est.), dose: 100.0 mg/kg/injection, schedule: Q07DX003 (ip), vehicle: other, higher = larger tumour): 56 % of control
T/C (endpoint: median tumor weight (est.), dose: 200.0 mg/kg/injection, schedule: Q07DX003 (ip), vehicle: other, higher = larger tumour): 34 % of control

C=C(OC1C(C)=C2C(C1OC(=O)CCCCCCC)C(C)(OC(C)=O)CC(OC(=O)CCC)C1(O)C2OC(=O)C1(C)O)/C(C)=C/C (configuration not stated)
T/C (endpoint: median tumor weight (est.), dose: 0.21 mg/kg/injection, schedule: Q07DX002 (ip), vehicle: Klucel (hydroxypropylcellulose) (HPC), higher = larger tumour): 35 % of control
T/C (endpoint: median tumor weight (est.), dose: 0.84 mg/kg/injection, schedule: Q07DX002 (ip), vehicle: Klucel (hydroxypropylcellulose) (HPC), higher = larger tumour): 82 % of control and 86 % of control and 92 % of control

CC1(C)CC2(C)OC2C2(C1)N=NC(=Nc1ccccc1)O2 (configuration not stated)
T/C [3]: 119 % of control
T/C [4]: 101 % of control
T/C [11]: 213 % of control

Nc1ccc(C(=O)Nc2ccccc2N)cc1
T/C [1]: 121 % of control
T/C (endpoint: median tumor weight (est.), dose: 25.0 mg/kg/injection, schedule: Q01DX007 (ip), vehicle: saline with Tween-80, higher = larger tumour): 160 % of control
T/C (endpoint: median tumor weight (est.), dose: 25.0 mg/kg/injection, schedule: Q01DX007 (oral), vehicle: saline with Tween-80, higher = larger tumour): 58 % of control
T/C [2]: 67 % of control
T/C (endpoint: median tumor weight (est.), dose: 50.0 mg/kg/injection, schedule: Q01DX007 (ip), vehicle: saline with Tween-80, higher = larger tumour): 71 % of control
T/C (endpoint: median tumor weight (est.), dose: 50.0 mg/kg/injection, schedule: Q01DX007 (oral), vehicle: saline with Tween-80, higher = larger tumour): 78 % of control
T/C (endpoint: median tumor weight (est.), dose: 100.0 mg/kg/injection, schedule: Q01DX007 (ip), vehicle: saline with Tween-80, higher = larger tumour): 123 % of control
T/C [4]: 121 % of control
T/C (endpoint: median tumor weight (est.), dose: 200.0 mg/kg/injection, schedule: Q01DX007 (oral), vehicle: saline with Tween-80, higher = larger tumour): 76 % of control
T/C [11]: 84 % of control
T/C (endpoint: median tumor weight (est.), dose: 400.0 mg/kg/injection, schedule: Q01DX007 (oral), vehicle: saline with Tween-80, higher = larger tumour): 105 % of control

COc1ccc(C2Oc3cc(OC)ccc3C(=O)C2c2ccccc2)cc1 (configuration not stated)
T/C (endpoint: median tumor weight (est.), dose: 43.0 mg/kg/injection, schedule: Q07DX002 (ip), vehicle: other, higher = larger tumour): 35 % of control
T/C (endpoint: median tumor weight (est.), dose: 72.0 mg/kg/injection, schedule: Q07DX002 (ip), vehicle: other, higher = larger tumour): 56 % of control
T/C (endpoint: median tumor weight (est.), dose: 120.0 mg/kg/injection, schedule: Q07DX002 (ip), vehicle: other, higher = larger tumour): 41 % of control
T/C (endpoint: median tumor weight (est.), dose: 200.0 mg/kg/injection, schedule: Q07DX002 (ip), vehicle: other, higher = larger tumour): 34 % of control
T/C (endpoint: median tumor weight (est.), dose: 333.33 mg/kg/injection, schedule: Q07DX002 (ip), vehicle: other, higher = larger tumour): 82 % of control

CNC(=O)n1c(N)nc(-c2ccccc2)c1-c1ccccc1
T/C [1]: 80 % of control
T/C [2]: 99 % of control
T/C [3]: 119 % of control
T/C [4]: 98 % of control

Cc1c2ccc3ccccc3c2c[n+]2ccccc12
T/C (endpoint: median tumor weight (est.), dose: 5.0 mg/kg/injection, schedule: Q07DX002 (ip), vehicle: Klucel (hydroxypropylcellulose) (HPC), higher = larger tumour): 111 % of control and 87 % of control
T/C (endpoint: median tumor weight (est.), dose: 10.0 mg/kg/injection, schedule: Q07DX002 (ip), vehicle: Klucel (hydroxypropylcellulose) (HPC), higher = larger tumour): 77 % of control
T/C (endpoint: median tumor weight (est.), dose: 40.0 mg/kg/injection, schedule: Q07DX002 (ip), vehicle: Klucel (hydroxypropylcellulose) (HPC), higher = larger tumour): 89 % of control

Nc1ncnc2c1ccn2C1OC(CO)C(O)C1O (configuration not stated)
T/C (endpoint: median tumor weight (est.), dose: 0.5 mg/kg/injection, schedule: Q07DX003 (ip), vehicle: Klucel (hydroxypropylcellulose) (HPC), higher = larger tumour): 110 % of control and 87 % of control
T/C (endpoint: median tumor weight (est.), dose: 1.0 mg/kg/injection, schedule: Q07DX003 (ip), vehicle: Klucel (hydroxypropylcellulose) (HPC), higher = larger tumour): 74 % of control and 80 % of control
T/C (endpoint: median tumor weight (est.), dose: 2.0 mg/kg/injection, schedule: Q07DX003 (ip), vehicle: Klucel (hydroxypropylcellulose) (HPC), higher = larger tumour): 84 % of control and 86 % of control

CC[C@@]1(O)C[C@H](OC2CC(N(C)C)C(OC3CC(O)C(OC4CC(O)C(O)C(C)O4)C(C)O3)C(C)O2)c2c(cc3c(c2O)C(=O)c2c(O)ccc(O)c2C3=O)[C@H]1C(=O)OC (some centres not stated)
T/C (endpoint: median tumor weight (est.), dose: 1.5 mg/kg/injection, schedule: Q07DX003 (ip), vehicle: Klucel (hydroxypropylcellulose) (HPC), higher = larger tumour): 95 % of control
T/C (endpoint: median tumor weight (est.), dose: 3.0 mg/kg/injection, schedule: Q07DX003 (ip), vehicle: Klucel (hydroxypropylcellulose) (HPC), higher = larger tumour): 72 % of control

CC(C)C(N)C(=O)Nc1nncs1 (configuration not stated)
T/C [5]: 108 % of control and 98 % of control
T/C [6]: 68 % of control and 88 % of control
T/C [7]: 45 % of control and 48 % of control

Cc1cc(O)c(O)c(Oc2cc(C)cc(O)c2O)c1
T/C (endpoint: median tumor weight (est.), dose: 0.35 mg/kg/injection, schedule: Q07DX002 (ip), vehicle: saline, higher = larger tumour): 96 % of control
T/C (endpoint: median tumor weight (est.), dose: 0.7 mg/kg/injection, schedule: Q07DX002 (ip), vehicle: saline, higher = larger tumour): 78 % of control
T/C (endpoint: median tumor weight (est.), dose: 1.4 mg/kg/injection, schedule: Q07DX002 (ip), vehicle: saline, higher = larger tumour): 77 % of control

C=Cc1cnc([N+](=O)[O-])n1C
T/C (endpoint: median tumor weight (est.), dose: 12.5 mg/kg/injection, schedule: Q07DX002 (ip), vehicle: Klucel (hydroxypropylcellulose) (HPC), higher = larger tumour): 67 % of control and 84 % of control
T/C (endpoint: median tumor weight (est.), dose: 25.0 mg/kg/injection, schedule: Q07DX002 (ip), vehicle: Klucel (hydroxypropylcellulose) (HPC), higher = larger tumour): 109 % of control and 97 % of control
T/C (endpoint: median tumor weight (est.), dose: 50.0 mg/kg/injection, schedule: Q07DX002 (ip), vehicle: Klucel (hydroxypropylcellulose) (HPC), higher = larger tumour): 62 % of control and 69 % of control

NCCc1cc(O)c(O)c(O)c1
T/C (endpoint: median tumor weight (est.), dose: 25.0 mg/kg/injection, schedule: Q07DX002 (ip), vehicle: saline, higher = larger tumour): 71 % of control
T/C (endpoint: median tumor weight (est.), dose: 50.0 mg/kg/injection, schedule: Q07DX002 (ip), vehicle: saline, higher = larger tumour): 62 % of control
T/C [5]: 82 % of control
T/C [6]: 80 % of control
T/C [7]: 110 % of control
T/C (endpoint: median tumor weight (est.), dose: 800.0 mg/kg/injection, schedule: Q07DX002 (ip), vehicle: saline, higher = larger tumour): 51 % of control

Cc1ccc2c(ccc(CC(=S)[S-])[n+]2C)c1
T/C (endpoint: median tumor weight (est.), dose: 100.0 mg/kg/injection, schedule: Q07DX002 (ip), vehicle: Klucel (hydroxypropylcellulose) (HPC), higher = larger tumour): 111 % of control and 93 % of control
T/C (endpoint: median tumor weight (est.), dose: 200.0 mg/kg/injection, schedule: Q07DX002 (ip), vehicle: Klucel (hydroxypropylcellulose) (HPC), higher = larger tumour): 122 % of control
